Where two headings read alike, the source gives them in different places.
What was measured:
juvenile rats = assay: Chronic intermittent AICAR treatment of juvenile rats; format: in vivo, rat
Procedure: This dose distributed in the extracellular space of the rat (approx. 20 ml/100g b. w.) yields a concentration in the extracellular space of approximately 5 mM.
Referring to FIG. 19, it can be seen that food intake was diminished by approximately 25% over the first 24 hrs following each injection. The rats appear to compensate by eating more on the following day. […] Cumulative net food intake was diminished only modestly (about 3%) during all long-term studies.
These include the GLUT 4 glucose transporter, hexokinase and various mitochondrial enzymes including cytochrome C oxidase and citrate synthase. […] Also we found no increase in muscle glycogen.

HUVEC [1] = assay: Serine incorporation into ceramide in HUVEC; format: cell-based, human; settings: 30 mM glucose + AICAR, 24 hr
Procedure: To assess whether alterations in ceramide contributed to these events, and particularly the decrease in membrane potential, we attempted to measure ceramide content. Ceramide was not detectable in HUVEC incubated with either 5 or 30 mM glucose. […] Consistent with these findings, we found no increase in serine incorporation into ceramide, (presumably a measure of de novo synthesis) in cells incubated for 24 hr in 30 vs 5 mM glucose.

HUVEC [2] = assay: HUVEC metabolism after 16 hrs incubation with 30 mM glucose; format: cell-based, human; settings: 1 mM AICAR in 30 mM glucose
Procedure: Incubation of HUVEC with 30 mM glucose for 16 hrs decreased free fatty oxidation by 50% (FIG. 7A) and increased free fatty acid incorporation into diacylglycerol (DAG) (i.e., esterification) by 40% (FIG. 7B). These changes were accompanied by a significant decline in mitochondria membrane potential (FIG. 7C).

rats = settings: cited from earlier work
[3] = system: human and bovine retinal pericytes; assay: Palmitate-induced apoptosis in retinal pericytes (TUNEL staining); format: cell-based
Procedure: Apoptosis was induced by incubating the cells with a medium containing 0-0.5 mM palmitic acid for 3 days. Apoptotic cells were determined by conventional TUNEL staining. Ceramide and DAG levels were measured the by diacylgycerol kinase method using 32P-ATP.

HUVEC [4] = format: cell-based, human
Procedure: (§1) As previously mentioned, AMPK increases fatty acid oxidation in both liver and skeletal muscle by phosphorylation and inhibition of acetyl CoA carboxylase. We wanted to test if this effect of AMPK is also present in endothelial cells. […] A significant decrease was seen within the first 30 minutes of incubation (FIG. 3). ACC activity went down from 163.1±27.0 pmol/min/mg protein at 0 minutes to 61.1±1.1 at 30 minutes (P=0.004), 73.0 ±12.4 at 60 minutes and 51.2±5.0 at 120 minutes (P=0.015). As previously described, ACC activation increases malonyl CoA levels and this in turn inhibits CPT1, the enzyme responsible for the uptake of long chain fatty acyl CoA into the mitochondria where they are oxidized. […] Fatty acid oxidation was measured by the formation of titrated water (^3H2O) in cells incubated with ^3H-palmitate. A significant increase was seen only after a 2-hour incubation (P=0.002). […] (See Table 1A, FIG. 6.) Glucose and fatty acid oxidation, glucose uptake and lactate and pyruvate release were determined in the absence and presence of […] carnitine.
To see if this also occurred in endothelial cells, glucose uptake was measured (Table 1).
In addition, lactate and pyruvate production were measured to see if the rate of glycolysis had changed.
This was not attributable to an increase in glucose oxidation. Glucose oxidation was measured by determining labeled CO2 production when the cells are incubated with ^14C-(U) glucose.
As a result their rate of oxidation can be greatly underestimated unless the tissue is prelabeled with fatty acid. […] Thus, when the HUVEC were pre-incubated with radioactive palmitate for 24 hours prior to ^14CO2 collection (to label the intracellular lipid pools), the measured rate of fatty acid oxidation was increased by 5 fold during the second hour of a two-hour incubation with radioactive palmitate added to the medium. […] (See Table 1A.)

Na+/K+ pump = assay: Radioactive rubidium uptake with and without ouabain in HUVEC; format: cell-based, human; settings: 2 mM AICAR for 2 hours
Procedure: One of the major ATP users, the Na^+/K^+pump, was investigated. The activity of this pump was tested by measuring the uptake of radioactive rubidium in the absence and presence of ouabain, an Na^+/K^+pump inhibitor. The difference in uptake, which is referred to as ouabain-sensitive Rb^+uptake, is the Na^+/K^+pump activity. […] When the ouabain sensitive component was calculated, no ,difference was seen between the two incubations, (2.11±0.9 and 3.3±0.9 pmol/min/mg protein), thus leading us to believe that no change in Na^+/K^+pump activity had occurred. […] The AMPK activity remained high with a longer incubation time up to 120 minutes.

[5] = system: acetyl CoA carboxylase (ACC); assay: Acetyl CoA carboxylase activity in HUVEC incubated with AICAR; format: cell-based, human; settings: 2 mM AICAR
Procedure: as §1
The results described in other tissues are seen in the endothelial cells. […] The presence of ACC is shown by the substantial increase in enzyme activity when 10 mM citrate is present vs. 0 mM citrate. Citrate allosterically activates ACC, but not other enzymes, such as propionyl CoA carboxylase and pyruvate carboxylase, which could also use HCO3^−as substrate. Thus, the increase in radioactive HCO3^−use in the presence of citrate is a reflection of ACC activity only. Similar to AMPK, the activity of ACC is lower in endothelial cells than in skeletal muscle and liver.

[6] = system: liver ACC activity and malonyl CoA; assay: ACC activity and malonyl CoA in liver two hours after AICAR injection; format: in vivo, rat
[7] = 250 mg/kg, 3 days/wk over 106 days
[8] = 12-week study period, not statistically significant

SMILES: NC(=O)c1ncn([C@@H]2O[C@H](CO)[C@@H](O)[C@H]2O)c1N [AICAR, 5-aminoimidizole-4-carboxamide riboside]
- decrease in food intake over the first 24 hrs following each injection (juvenile rats; 250 mg/kg 3 times/week, chow diet): approximately 25%
- hepatic enlargement (juvenile rats; 250 mg/kg intermittent regimen): no hepatic enlargement
- hepatocellular damage, morphologically (light microscope) (juvenile rats; 250 mg/kg intermittent regimen): no evidence of hepatocellular damage
- decrease in mass of intra-abdominal (retroperitoneal, mesenteric, epididymal) fat depots (juvenile rats; 250 mg/kg s.c. M, W, F for 25 days): 20-40%
- GLUT 4, UCP3, cytochrome C oxidase (RT-PCR) and citrate synthase activity in muscle (juvenile rats; [7]): no changes
- muscle glycogen (juvenile rats; [7]): no increase
- weights of the heart, liver or other organs (juvenile rats; 250 mg/kg, at 25 days): no differences
- muscle mass (juvenile rats; 250 mg/kg, at 106 days): increase in muscle mass is suggested
- decrease in food intake (juvenile rats; [8]): 3-4%
- weight gain less than control (juvenile rats; [8]): 32 g
- decrease in plasma triglycerides (juvenile rats; 25 days treatment, 250 mg/kg): 40%
- plasma leptin (juvenile rats; 25 days treatment, 24 hrs following the last injection): significantly diminished
- decrease in cumulative net food intake (juvenile rats; all long-term studies): about 3%
- glucose and insulin levels during an oral glucose tolerance test (juvenile rats; chronic AICAR treatment): lower
- plasma insulin levels (juvenile rats; chronic AICAR treatment): significantly diminished
- tolerability / gross toxicity (juvenile rats; rat, in vivo, sc, 250 mg/kg): without evidence of gross toxicity
- serine incorporation into ceramide (HUVEC [1]): 9.0±1.2
- decline in mitochondria membrane potential caused by 30 mM glucose (HUVEC [2]): prevented all these changes
- decrease in free fatty acid oxidation caused by 30 mM glucose (HUVEC [2]): prevented all these changes
- increase in free fatty acid incorporation into diacylglycerol caused by 30 mM glucose (HUVEC [2]): prevented all these changes
- blood glucose levels (rats; 500 mg/kg/twice daily, control and diabetic rats (U.S. Pat. No. 5,658,889)): lowers
- liver size (rats; 1000 mg/kg body weight daily for 28 days (Winder)): hepatic enlargement
- muscle glycogen (rats; 1000 mg/kg/day for 28 days (Winder et al.)): increased
- apoptotic cells (TUNEL) ([3]; 0.5 mM palmitate + 1 mM AICAR, 3 days): 10±2%
- decrease in apoptosis ([3]; 1 mM AICAR vs 0.5 mM palmitate alone): 50%
- fatty acid oxidation (HUVEC [4]; 50 pM carnitine added, 3H-palmitate, 2-hour incubation): increased significantly
- glucose oxidation (labeled CO2 production) (HUVEC [4]; 14C-(U) glucose, after two hours): increased significantly
- lactate production (HUVEC [4]; AICAR incubation, 2 hours): even more obvious decrease
- pyruvate production (HUVEC [4]; AICAR incubation, 2 hours): slight, but significant decrease
- ATP generated accounted for by fatty acid oxidation (HUVEC [4]; HUVEC incubated 2 hrs in 6 mM glucose with AICAR): ~40%
- fatty acid oxidation (HUVEC [4]; absence of carnitine, 2 hours): did not show any changes
- levels of ATP measured by bioluminescence (HUVEC [4]; after AICAR incubation): rose
- glucose uptake (HUVEC [4]; during the AICAR incubation): decreased
- calculated rate of ATP generation (HUVEC [4]; no prelabeling (Table 1)): significantly diminished
- ATP generated accounted for by fatty acid oxidation (HUVEC [4]; second hour of two-hour incubation, 24 hours prelabeling with palmitate, with AICAR): 60%
- ouabain-sensitive Rb+ uptake (Na+/K+ pump activity) (Na+/K+ pump): 3.3±0.9 pmol/min/mg protein
- total rubidium uptake (Na+/K+ pump): 6.0 ±0.3 pmol/min/mg protein
- ACC activity ([5]; at 30 minutes): 61.1±1.1 pmol/min/mg protein
- ACC activity ([5]; at 60 minutes): 73.0 ±12.4 pmol/min/mg protein
- ACC activity ([5]; at 120 minutes): 51.2±5.0 pmol/min/mg protein
- dose at which maximal effect on liver ACC activity and malonyl CoA was observed [6]: 500 mg/kg
- ACC activity in liver ([6]; 250 mg/kg): significantly diminished
- malonyl CoA concentration in liver ([6]; 250 mg/kg): significantly diminished

From US20030212014A1 (priority 2000, published 2003)
